Data as given in US6569633B1, “Modulation of the sulfonylurea receptor and calcium in adipocytes for treatment of obesity/diabetes” (Artecel Science, Inc., priority 1998, dated 2003).

Tests used:
[1] = test system: human adipocytes; assay: Lipolysis (glycerol release into the culture medium) in human adipocytes; assay type: cell-based
Experimental: FIG. 4. The anti-lipolytic effect of glibenclamide in human adipocytes. Activation of lipolysis in adipocytes is typically measured by release of glycerol into the media. Human adipocytes were treated with 10 μM glibenclamide alone, 10 μM glibenclamide plus 10 μM diazoxide or 10 μM glibenclamide plus 30 μM nitrendipine for 48 hr. Glycerol release was determined as described (19). *p<0.01 vs. Control.
Human adipocytes were examined for changes in lipolysis regulation by measurement of glycerol release into the media. Glycerol was measured by using a standard method (19), although other techniques for measuring glycerol would be equally useful.
Human subcutaneous abdominal adipose tissue was obtained from patients undergoing elective abdominal cosmetic surgery, although other types of adipose tissue, such as mesenteric, retroperitoneal, perirenal, or omental may be useful in identifying these compounds. Preadipocytes are isolated by collagenase treatment of the tissue and cultured adipocytes prepared as described (patent filed; Jan. 29, 1999; Ser. No. 09/240,029). Agents that regulate calcium flux in adipocytes as noted above can mediate lipolysis. Human adipocytes may be cultured in multi-well plates with different treatments between 1 hour or 24 hours as indicated, and glycerol release into the culture medium was determined as an indicator for lipolysis using a one-step enzymatic fluorometric method. The media collected from 1 hr treatments were used directly for glycerol measurements. For 24 hr treatments, media were removed, and cells were washed with Hank's Balanced Salt Solution and incubated in fresh medium for a further 10-60 min. This media were then used for glycerol measurements for 24 hr treatments.
We next investigated the role of adipocyte SUR1 on lipolysis. Lipolysis was measured as follows. Human adipocytes were treated as described below and glycerol release into the culture medium was determined as an indicator for lipolysis using a one step enzymatic fluorometric method (19). After treatment medium was obtained, HClO4 was added for deproteinization.
Agents that regulate calcium flux in adipocytes as noted above can mediate lipolysis. Human adipocytes (1 mL cells/well) were incubated in 24-well plates with different treatments for either 1 hour or 24 hours as indicated, and glycerol release into the culture medium was determined as an indicator for lipolysis using a one-step enzymatic fluorometric method. The media collected from 1 hr treatments were used directly for glycerol measurements. For 24 hr treatments, media were removed, and cells were washed with Hank's Balanced Salt Solution and incubated in fresh medium for a further 30 min. This media were then used for glycerol measurements for 24 hr treatments. After medium was collected, HClO4 was added to give a final concentration of 3% for deproteinization. The sample was centrifuged at 9000×g for 20 min. The supernatant was then collected and neutralized with 10N NaOH. Samples were stored at −80° C. prior to glycerol assay. Cells were collected, homogenized and stored at −80° C. for subsequent total protein correction by a modified Bradford method using Coomassie Blue dye (PIERCE, Rockford, Ill.).

[2] = test system: FAS activity in human adipocytes; assay: Fatty acid synthase (FAS) activity in human adipocytes; assay type: cell-based
[3] = test system: human adipocytes; assay: Triglyceride accumulation in human adipocytes; assay type: cell-based; details: for triglyceride content: control 30.3±0.3
Experimental: Human subcutaneous abdominal adipocytes were isolated from healthy patients undergoing cosmetic liposuction using methodology we have previously described. Briefly, the tissue was washed several times with Hank's Balanced Salt Solution, minced into small fragments and digested with type I collagenase (1 mg/mL) in a shaking water bath at 37° C. for 30-40 minutes. Cells were then filtered through a sterile nylon filter (500 μm mesh) and cultured in Dulbecco's Modified Eagle's Medium (DMEM) supplemented with 1% fetal bovine serum, 1% bovine serum albumin, 100 U/mL penicillin, 100 μg/mL streptomycin and 50 μg/mL gentamicin. Cells were subsequently cultured in suspension in sterile polypropylene flasks in a humidified 37° C./5% CO2 incubator. After one day, suspended (floating) adipocytes were transferred to fresh medium and maintained as a thin layer at the top of the culture medium to ensure access to nutrients. The cells were maintained for another 24 hours in this medium and then changed to fresh medium with the addition of SUR agonists (such as glibenclamide) for up to 48 hours with the compounds to be tested. Medium was changed every 24 hours, and cell viability was verified with trypan blue exclusion at the end of representative experiments.
Stimulation of fatty acid synthase and concomitant inhibition of lipolysis results in increased lipid accumulation in human adipocytes. Adipocytes were treated as described above, harvested, and their triglyceride content was analyzed and normalized for protein content. […] Thus, these calcium-stimulated biochemical activities will contribute to the development of adipocyte hypertrophy and potentially obesity.

[4] = test system: hyperinsulinemic obese adults; details: cited from earlier work
[5] = test system: GPDH activity in human adipocytes; assay: GPDH activity in human adipocytes; assay type: cell-based; details: 10 μM glibenclamide plus 10 μM diazoxide
Experimental: FIG. 3. The lipogenic effect of glibenclamide in human adipocytes. As an indicator of lipogenic stimulation, both FAS and GPDH activity were measured. A. Glibenclamide stimulation of FAS activity. Human adipocytes were treated with 10 μM glibenclamide alone, 10 μM glibenclamide plus 10 μM diazoxide or 10 μM glibenclamide plus 30 μM nitrendipine for 48 hr. FAS was measured as described (6, 14). *p<0.001 vs. Control. B. Glibenclamide stimulation of GPDH activity. Human adipocytes were treated with 10 μM glibenclamide or 10 μM glibenclamide plus 10 μM diazoxide for 48 hr. GPDH activity was measured as described (14). *p<0.01 vs. Control.
To study the role of adipocyte SUR1 in regulating lipogenesis, we treated human adipocyte with SUR1 agonist and antagonist using FAS and GPDH activities as lipogenic markers. Human adipocytes were incubated in 24-well plates with the treatments indicated for 48 hr. FAS and GPDH activities were determined spectrophotometrically in crude cytosolic extracts of human adipocytes by measuring the oxidation rate of NADPH or NADH respectively, as previously described (14). The protein correction was measured by a modified Bradford method using Coomassie Blue dye (Pierce, Rockford, Ill.).

[6] = test system: obese Zucker rats; details: cited from earlier work
[7] = test system: human adipocytes; assay: Intracellular Ca2+ ([Ca2+]i) by fura-2 fluorometry in isolated human adipocytes; assay type: cell-based
Experimental: FIG. 2. Glibenclamide stimulation of [Ca^2+]i in isolated human adipocyte. [Ca^2+]i in isolated human adipocytes was determined fluorometrically as previously described (4,7). Briefly, the human adipocytes isolated as described above were incubated in DMEM medium overnight for cell recovery. Prior to [Ca^2+]i measurement, adipocytes were pre-incubated in serum-free medium for 2 hrs, rinsed with HBSS solution containing the following components in mM: NaCl 138, CaCl2 1.8, MgSO4 0.8, NaH2PO4 0.9, NaHCO3 4, glucose 20, glutamine 6, HEPES 20 and BSA 1%. Cells were then loaded with fura-2 acetoxymethyl ester (10 μM) in the same buffer for 45 min at 37° C. in the dark with continuous shaking. To remove extracellular dye, cells were rinsed with HBSS for 3 times and resuspended in this solution at a concentration of 2×10^5 cells/ml. [Ca^2+]i was measured using dual excitation (340 and 380 nm) and single emission (510 nm) fluorometry. Following the establishment of stable baseline, the response to glibenclamide (10 and 20 μM) was determined. Digitonin (25 μM) and Tris/EGTA (100 mM) were used to measure maximal and minimal fluorescence to calibrate the signals, and final [Ca^2+]i was then calculated by the equation of Grynkiewicz et al. (17). […] Glibenclamide (Glib) was added at time designated by the arrow. B. The dose-responsive effect of glibenclamide on [Ca^2+]i in human adipocytes. Glibenclamide was added at 10 and 20 µM at the indicated times. *p<0.05 vs. Control, **p<0.05 vs. 10 μM glibenclamide.
The functionality of the SUR1 receptor was determined with respect to calcium mobilization and small molecule effects. [Ca^2+]i response was measured fluorometrically in isolated human adipocytes using a standard method (2,16). Briefly, isolated human adipocytes were incubated in DMEM or any other suitable medium such as Ham's F-10, Modified Eagle's media plus 5-10% fetal calf serum overnight for cell recovery. Prior to [Ca^2+]i measurement, adipocytes were pre-incubated in serum-free medium for 2 hrs, rinsed with HBSS solution containing the following components in mM: NaCl 138, CaCl2 1.8, MgSO4 0.8, NaH2PO4 0.9, NaHCO3 4, glucose 20, glutamine 6, HEPES 20 and BSA 1%. Cells were then loaded with fura-2 acetoxymethyl ester (10 μM) in the same buffer for 30-60 min at 37° C. in dark with continuous shaking. To remove extracellular dye, cells were rinsed with HBSS for three times and resuspended in this solution at a concentration of 1-10×10^5 cells/ml. [Ca^2+]i was measured using dual excitation (340 and 380 nm) and single emission (510 nm) fluorometry. Following the establishment of stable baseline, the response to a SUR agonist such as glibenclamide (1-20 μM) can be determined. Digitonin (25 μM) and Tris/EGTA (100 mM) were used to measure maximal and minimal fluorescence to calibrate the signals, and final [Ca^2+]i was then calculated by a known method such as described in Grynkiewicz et al (17).
Correlation of lipolysis with flux of intracellular calcium ([Ca^2+]i) concentration is then performed. [Ca^2+]i is measured in primary adipocytes. For primary adipocytes, 3 ml of cells are resuspended in 6 ml of HBSS and fura-2/AM was loaded for 80 min at 37° C. Extracellular fura-2/AM is washed three times with HBSS by centrifugation. [Ca^2+]i levels are then measured fluorometrically in suspensions using dual excitation (340 and 380 nm)/single emission (510 nm) fluorometry and [Ca^2+]i is calculated by the computer in the fluorometer. As a control, after loading fura-2/AM cells are pretreated with nitrendipine (RBI, Natick, Mass.) (30 μM, final concentration) for 10 min at 37° C.

C=C[C@@]1(C)CC(=O)[C@]2(O)[C@@]3(C)[C@@H](O)CCC(C)(C)[C@@H]3[C@H](O)[C@H](OC(C)=O)[C@@]2(C)O1 [forskolin]
increase in lipolysis ([1]; 1 μM forskolin): 48%

CCOC(=O)C1=C(C)NC(C)=C(C(=O)OC)C1c1cccc([N+](=O)[O-])c1 (stereo not drawn) [nitrendipine]
fatty acid synthase activity ([2]; 1 nM insulin plus 30 μM nitrendipine): 4.12 ± 0.03 nmol/min/mg | reduction in insulin-stimulated triglyceride accumulation ([3]; 1 nM insulin plus nitrendipine): 40%

NC(=O)CC[C@@H]1NC(=O)[C@H](Cc2ccccc2)NC(=O)[C@H](Cc2ccc(O)cc2)NC(=O)[C@@H](N)CSSC[C@@H](C(=O)N2CCC[C@H]2C(=O)N[C@@H](CCCN=C(N)N)C(=O)NCC(N)=O)NC(=O)[C@H](CC(N)=O)NC1=O [AVP, arginine vasopressin]
fatty acid synthase activity ([2]; 1 nM AVP): 6.9±0.1 nmol/min/mg protein | inhibition of forskolin-induced lipolysis ([1]; 1 nM AVP, short-term): 56±6.6%

[Cl-].[K+] [KCl]
fatty acid synthase activity ([2]; 40 mM KCl for two hours, harvested approximately 72 hours later, control 3.93±0.11): 6.24±0.2 nmol NADPH/min/mg protein | fatty acid synthase activity ([2]; 40 mM KCl, control 2.87 (diazoxide experiment)): 6.20±0.57 nmol/min/mg protein | lipolysis, % of control levels ([1]; 10 mM KCl, twenty-four hour exposure): 75.9±4.1% | inhibition of forskolin-induced lipolysis ([1]; 25 mM KCl, short-term (one-hour)): 42±5% | inhibition of forskolin-induced lipolysis ([1]; 40 mM KCl, short-term (one-hour)): 50±1.7% | triglyceride content ([3]; 40 mM KCl): 43.5±0.5 μg/mg protein

CNc1ccc2oc(C[C@H]3O[C@@]4(CC[C@H]3C)O[C@H]([C@H](C)C(=O)c3ccc[nH]3)[C@H](C)C[C@H]4C)nc2c1C(=O)O [A23187]
triglyceride accumulation ([3]; two-hour exposure to 10 nM A23187, ensuing 48 hours, control 31.4±2.4): 52±7 μg/mg protein

CC1=NS(=O)(=O)c2cc(Cl)ccc2N1 [diazoxide]
effect on obesity [4]: significant antiobesity effect | glibenclamide-stimulated increase in GPDH activity [5]: totally blocked | effect on obesity [6]: antiobesity effect | fatty acid synthase activity ([2]; 1 nM insulin and 5 μM diazoxide): 7.08 ± 0.10 nmol/min/mg | fatty acid synthase activity ([2]; 5 μM diazoxide and 2 μM glibenclamide): 1.00±0.10 nmol/min/mg protein | fatty acid synthase activity ([2]; 5 μM diazoxide and 10 μM glibenclamide): 1.21±0.31 nmol/min/mg protein | glibenclamide-caused increase in FAS activity ([2]; 10 μM glibenclamide plus 10 μM diazoxide, 48 hr): completely blocked | fatty acid synthase activity ([2]; 40 mM KCl in the presence of 5 μM diazoxide): 3.24±0.41 nmol/min/mg protein | glibenclamide-induced increases in fatty acid synthase activity ([2]; inclusion of 5 μM diazoxide): completely prevented | [Ca2+]i response to any dose of glibenclamide ([7]; in the presence of 5 μM diazoxide): no detectable response | [Ca2+]i response to any dose of glibenclamide ([7]; in the presence of 2-10 μM diazoxide): no detectable response

insulin
fatty acid synthase activity ([2]; 1 nM insulin, control 3.95±0.11): 14.56±0.22 nmol/min/mg protein

B1: parathyroid hormone (peptide, UniProt P01270 32-115, looked up)
Parathyroid hormone: SVSEIQLMHNLGKHLNSMERVEWLRKKLQDVHNFVALGAPLAPRDAGSQRPRKKEDNVLVESHEKSLGEADKADVNVLTKAKSQ
modifications: Parathyroid hormone
notes: stimulator of receptor-mediated Ca2+ influx
fatty acid synthase activity ([2]; 4.8 nM PTH): 6.9±0.1 nmol/min/mg protein | triglyceride content ([3]; 4.8 nM PTH): 54.5±0.6 μg/mg protein

B2: agouti: recombinant agouti protein, purified agouti gene product from a baculovirus expression system (protein, UniProt Q03288 23-131, looked up)
Agouti-signaling protein: HLALEETLGDDRSLRSNSSMNSLDFSSVSIVALNKKSKKISRKEAEKRKRSSKKKASMKKVARPPPPSPCVATRDSCKPPAPACCDPCASCQCRFFGSACTCRVLNPNC
decrease in basal lipolysis ([1]; 100 nM recombinant agouti, 24 hr): 60% | effect on basal lipolysis ([1]; 100 nM recombinant agouti, short-term (1 hr)): no effect | forskolin-induced increase in lipolysis ([1]; 1 μM forskolin plus 100 nM agouti): reversed | ACTH-induced lipolysis ([1]; short-term agouti treatment): totally inhibited
